{"source": "paper PMC8143647", "about": "“Proteomics of Galápagos Marine Iguanas Links Function of Femoral Gland Proteins to the Immune System” (Molecular & Cellular Proteomics : MCP, 2020)", "key": {"[1]": {"system": "Escherichia coli K12 or Escherichia coli BL21", "assay": "Antimicrobial activity, relative growth inhibition in broth microdilution (Gram-neg.)", "type": "cell-based", "design": "key to Activity against Gram-neg.: ++: highly active (comparable to oncocin); +: moderately active; +/-: moderately active without clear dose dependency; -: no activity; antimicrobial activity compared with oncocin: dose or concentration left out as unconfirmed", "details": "for Activity against Gram-neg.: Escherichia coli in Miller-Hinton broth, inoculum 1-2 x 10^7 cfu/ml, 100 µl + 20 µl test substance, 2n dilution series from 1 mg/ml down to 31 µg/ml, 18-24 h 37 °C, photometer 600 nm, duplicates", "procedure": "(§1) Test strains of Bacillus subtilis, Escherichia coli K12 or Escherichia coli BL21 were grown in Miller-Hinton broth (MHB) for 18–20 h at 37 °C with moderate shaking. An inoculum of 1–2 × 10^7 cfu/ml was prepared in fresh MHB and 100 µl of the suspension was pipetted into microtiter plate wells together with 20 µl test substance. Test substances were measured in duplicates. The plates were covered by a plastic seal to prevent evaporation and incubated for further 18–24 h at 37 °C with moderate shaking. The test substances were dissolved in water at a concentration of 1 mg/ml and a 2n dilution series down to 31 µg/ml was prepared in sterile PBS. After incubation, the bacterial growth was estimated with a Photometer at 600 nm and the relative growth inhibition was calculated compared with a control without test substance. As positive control the well-studied AMP oncocin was used.\n(§2) We were intrigued by these antimicrobial signatures and sought to systematically analyze the proteome of femoral glands. To this end, we utilized the marine iguana protein database of all detected proteins, and generated a library of potential antimicrobial peptides (AMP) by in-silico sliding window digestion. Here, we generated sequence windows of 8 to 15 amino acids and resulting peptides were predicted for antimicrobial activity by a trained support vector machine (as described in the methods) (Fig. 5). […] To experimentally test the antimicrobial properties of these peptides, we determined growth rate reductions of bacterial cultures in the presence of increasing candidate peptide concentration. As positive control, we used the well-established AMP oncocin ([40]). As negative control, we have picked four peptides predicted to have no AMP activity."}, "Bacillus subtilis": {"system": "Bacillus subtilis", "assay": "Antimicrobial activity, relative growth inhibition in broth microdilution (Gram-pos.)", "type": "cell-based", "design": "key to Activity against Gram-pos.: ++: highly active (comparable to oncocin); +: moderately active; +/-: moderately active without clear dose dependency; -: no activity", "details": "for Activity against Gram-pos.: Bacillus subtilis in Miller-Hinton broth, inoculum 1-2 x 10^7 cfu/ml, 100 µl + 20 µl test substance, 2n dilution series from 1 mg/ml down to 31 µg/ml, 18-24 h 37 °C, photometer 600 nm, duplicates", "procedure": "as §1, §2"}}}
{"substance": "AGVPRFRFGPPE [Iguana-10, predicted antimicrobial peptide from marine iguana proteome, …]", "values": [{"measurement": "Activity against Gram-neg.", "setting": "[1]", "value": "++"}, {"measurement": "Activity against Gram-pos.", "setting": "Bacillus subtilis", "value": "+/-"}]}
{"substance": "GGRRGSI [Iguana-02, predicted antimicrobial peptide from marine iguana proteome, GGRRGSI]", "values": [{"measurement": "Activity against Gram-neg.", "setting": "[1]", "value": "+/-"}, {"measurement": "Activity against Gram-pos.", "setting": "Bacillus subtilis", "value": "+/-"}]}
{"substance": "GSFPKEAIVQK [Iguana-07, predicted antimicrobial peptide from marine iguana proteome, …]", "values": [{"measurement": "Activity against Gram-neg.", "setting": "[1]", "value": "+/-"}]}
{"substance": "IADPDQFVLKPQ [Iguana-15, predicted antimicrobial peptide from marine iguana proteome, …]", "values": [{"measurement": "Activity against Gram-neg.", "setting": "[1]", "value": "+"}, {"measurement": "Activity against Gram-pos.", "setting": "Bacillus subtilis", "value": "+/-"}]}
{"substance": "IFELDGALYR [Iguana-non-04]", "values": [{"measurement": "Activity against Gram-neg.", "setting": "[1]", "value": "-"}, {"measurement": "Activity against Gram-pos.", "setting": "Bacillus subtilis", "value": "-"}]}
{"substance": "IIPNEDFS [Iguana-05, predicted antimicrobial peptide from marine iguana proteome, IIPNEDFS]", "values": [{"measurement": "Activity against Gram-neg.", "setting": "[1]", "value": "-"}]}
{"substance": "KKLYISKGCMSKSLC [Iguana-04, predicted antimicrobial peptide from marine iguana proteome, …]", "values": [{"measurement": "antimicrobial activity compared with oncocin", "setting": "[1]; E. coli cultures, low concentrations between 3 and 60", "value": "exceeded even the oncocin activity"}, {"measurement": "dose dependent maximal growth reduction", "setting": "[1]; E. coli cultures, vs control without test substance, OD 600 nm", "value": "approx. 75%"}, {"measurement": "Activity against Gram-neg.", "setting": "[1]", "value": "++"}, {"measurement": "dose dependent maximal growth reduction", "setting": "Bacillus subtilis; B. subtilis cultures, high concentrations required, vs control without test substance, OD 600 nm", "value": "~95", "unit": "%"}, {"measurement": "Activity against Gram-pos.", "setting": "Bacillus subtilis", "value": "++"}]}
{"substance": "KKPLITMDEIP [Iguana-11, predicted antimicrobial peptide from marine iguana proteome, …]", "values": [{"measurement": "Activity against Gram-neg.", "setting": "[1]", "value": "+"}, {"measurement": "Activity against Gram-pos.", "setting": "Bacillus subtilis", "value": "++"}]}
{"substance": "LKVPELNV [Iguana-non-02]", "values": [{"measurement": "Activity against Gram-neg.", "setting": "[1]", "value": "-"}, {"measurement": "Activity against Gram-pos.", "setting": "Bacillus subtilis", "value": "-"}]}
{"substance": "LPTKLDSAFIRKDPFG [Iguana-14, predicted antimicrobial peptide from marine iguana proteome, …]", "values": [{"measurement": "Activity against Gram-neg.", "setting": "[1]", "value": "+"}, {"measurement": "Activity against Gram-pos.", "setting": "Bacillus subtilis", "value": "+/-"}]}
{"substance": "LSLSRISIP [Iguana-06, predicted antimicrobial peptide from marine iguana proteome, …]", "values": [{"measurement": "Activity against Gram-neg.", "setting": "[1]", "value": "+/-"}]}
{"substance": "LSRPGVLERFLPDKP [Iguana-16, predicted antimicrobial peptide from marine iguana proteome, …]", "values": [{"measurement": "Activity against Gram-neg.", "setting": "[1]", "value": "+"}, {"measurement": "Activity against Gram-pos.", "setting": "Bacillus subtilis", "value": "+"}]}
{"substance": "MPKFHMPKF [Iguana-17, predicted antimicrobial peptide from marine iguana proteome, …]", "values": [{"measurement": "Activity against Gram-neg.", "setting": "[1]", "value": "++"}, {"measurement": "Activity against Gram-pos.", "setting": "Bacillus subtilis", "value": "++"}]}
{"substance": "NLVSVDERLV [Iguana-non-03]", "values": [{"measurement": "Activity against Gram-neg.", "setting": "[1]", "value": "-"}, {"measurement": "Activity against Gram-pos.", "setting": "Bacillus subtilis", "value": "-"}]}
{"substance": "RGQYG [Iguana-09, predicted antimicrobial peptide from marine iguana proteome, RGQYG]", "values": [{"measurement": "Activity against Gram-neg.", "setting": "[1]", "value": "+"}]}
{"substance": "RGSIGGGRRGSI [Iguana-03, predicted antimicrobial peptide from marine iguana proteome, …]", "values": [{"measurement": "Activity against Gram-neg.", "setting": "[1]", "value": "-"}, {"measurement": "Activity against Gram-pos.", "setting": "Bacillus subtilis", "value": "+/-"}]}
{"substance": "RLTPFVEPRY [Iguana-12, predicted antimicrobial peptide from marine iguana proteome, …]", "values": [{"measurement": "Activity against Gram-neg.", "setting": "[1]", "value": "+"}, {"measurement": "Activity against Gram-pos.", "setting": "Bacillus subtilis", "value": "+/-"}]}
{"substance": "SALWVVER [Iguana-non-01]", "values": [{"measurement": "Activity against Gram-neg.", "setting": "[1]", "value": "-"}, {"measurement": "Activity against Gram-pos.", "setting": "Bacillus subtilis", "value": "-"}]}
{"substance": "SYFVKRPPGV [Iguana-13, predicted antimicrobial peptide from marine iguana proteome, …]", "values": [{"measurement": "Activity against Gram-neg.", "setting": "[1]", "value": "+/-"}, {"measurement": "Activity against Gram-pos.", "setting": "Bacillus subtilis", "value": "+/-"}]}
{"substance": "VDKPPYLPRPRPPRRIYNR-NH2 [Oncocin, well-studied AMP used as positive control, …-NH2, reference compound]", "values": [{"measurement": "Activity against Gram-neg.", "setting": "[1]", "value": "++"}, {"measurement": "Activity against Gram-pos.", "setting": "Bacillus subtilis", "value": "++"}]}
{"substance": "VDPQKV [Iguana-08, predicted antimicrobial peptide from marine iguana proteome, VDPQKV]", "values": [{"measurement": "Activity against Gram-neg.", "setting": "[1]", "value": "+"}]}
{"substance": "YKFYKA [Iguana-01, predicted antimicrobial peptide from marine iguana proteome, YKFYKA]", "values": [{"measurement": "Activity against Gram-neg.", "setting": "[1]", "value": "+"}, {"measurement": "Activity against Gram-pos.", "setting": "Bacillus subtilis", "value": "+"}]}
